Legend:
Type in all cases: cell-based, Human
[1] = test system: PANC-1; experiment: Cell growth inhibition assay (SRB), PANC-1; details: PANC-1 (pancreas), 96 hours
Text: (§1) Cancer cells used in this study to determine the effect of quinazoline compounds were obtained from the following sources: Human OVCAR-3 (ovary), MCF-7 (breast, hormone-dependent), Hs 578T (breast), MDA-MB-231 (breast), HeLa (cervix), PC3 (prostate), HepG2 (liver), A549 (lung), Caki-1 (kidney), HT-29 (colon), HCT116 (colon) and PANC-1 (pancreas) from the American Type Culture Collection (ATCC) (Manassas, Va.); U251 (brain) from Riken (Japan); MKN-45 (stomach) from DSMZ (Germany); UMRC2 (kidney) and Lox IMVI (melanoma) from the United States National Cancer Institute (Bethesda, Md.). All cell lines except Hs 578T, MDA-MB-231, HCT116, UMRC2, Caki-1 and PANC-1 were grown in RPMI1640 medium (Invitrogen, Carlsbad, Calif.) supplemented with 10% fetal bovine serum (“FBS”), 1 mM sodium pyruvate, 10 mM HEPES and 100 U/ml penicillin and 100 μg/ml streptomycin (“P/S”). Hs 578T, MDA-MB-231, HCT116, UMRC2, Caki-1 and PANC-1 cells were maintained in Dulbecco's modified Eagle's medium (“DMEM”, Invitrogen) supplemented with 10% FBS, P/S, 10 mM HEPES and 2 mM L-glutamine. All cells were incubated at 37° C. under humidified 5% CO2.
(§2) The growth inhibition of the substituted quinazoline derivative compounds against a variety of human tumor cells was evaluated. The relative importance of particular substituent groups on the compounds was also studied. The substituted quinazoline derivative compounds, prepared as described above, were tested, along with DMSO as a control.
(§3) The growth inhibition assay of various compounds against 15 human tumor cell lines was performed using the Sulforhodamnine B (“SRB”) method (Skehan et al., J. National Cancer Institute, 82: 1107-1112 (1990)). Briefly, exponentially growing tumor cells were seeded into a 96-well plate at a density of 2-3×10^3 cells/well and treated with quinazoline compounds the next day. Triplicate wells were used for each treatment. The cells were. incubated with the various compounds for 96 hours at 37° C. in a humidified 5% CO2 atmosphere. After 96-hour incubation, cells were fixed with 10% trichloroacetic acid (“TCA”), incubated for 1 hour at 4° C., and washed 3 times with tap water. Subsequently cells were stained with 0.4% sulforhodamine B in 1% acetic acid for 30 minutes, washed 4 times with 1% acetic acid, and air-dried again. After 5 minutes agitation in 10 mM Tris solution, the absorbance of each well was measured at 530 nm using Benchmark Plus Microplate reader (Bio-Rad Laboratories, Hercules, Calif.).
(§4) To translate the OD530 values into the number of live cells in each well, the OD530 values were compared to those on standard OD530—versus—cell number curves generated for each cell line. The percent survival was calculated using the formula: % Survival=live cell number [test]/live cell number [control]×100
(§5) The IC50 values were calculated by non-linear regression analysis.

[2] = test system: HT-29; experiment: Cell growth inhibition assay (SRB), HT-29; details: HT-29 (colon), 96 hours
Text: as §1, §2, §3, §4, §5

[3] = test system: Lox IMVI; experiment: Cell growth inhibition assay (SRB), Lox IMVI; details: Lox IMVI (melanoma), 96 hours
Text: as §1, §2, §3, §4, §5

[4] = test system: PC3; experiment: Cell growth inhibition assay (SRB), PC3; details: PC3 (prostate), 96 hours
Text: as §1, §2, §3, §4, §5

[5] = test system: MCF-7; experiment: Cell growth inhibition assay (SRB), MCF-7; details: MCF-7 (breast, hormone-dependent), 96 hours
Text: as §1, §2, §3, §4, §5

[6] = test system: Hs 578T; experiment: Cell growth inhibition assay (SRB), Hs 578T; details: Hs 578T (breast), 96 hours
Text: as §1, §2, §3, §4, §5

[7] = test system: UMRC2; experiment: Cell growth inhibition assay (SRB), UMRC2; details: UMRC2 (kidney), 96 hours
Text: as §1, §2, §3, §4, §5

[8] = test system: U251; experiment: Cell growth inhibition assay (SRB), U251; details: U251 (brain), 96 hours
Text: as §1, §2, §3, §4, §5

[9] = test system: Caki-1; experiment: Cell growth inhibition assay (SRB), Caki-1; details: Caki-1 (kidney), 96 hours
Text: as §1, §2, §3, §4, §5

[10] = test system: A549; experiment: Cell growth inhibition assay (SRB), A549; details: A549 (lung), 96 hours
Text: as §1, §2, §3, §4, §5

[11] = test system: OVCAR-3; experiment: Cell growth inhibition assay (SRB), OVCAR-3; details: OVCAR-3 (ovary), 96 hours
Text: as §1, §2, §3, §4, §5

[12] = test system: HepG2; experiment: Cell growth inhibition assay (SRB), HepG2; details: HepG2 (liver), 96 hours, read-out: Inhibition of cell growth (IC50, μM) HepG 2
Text: as §1, §2, §3, §4, §5

[13] = test system: HeLa; experiment: Cell growth inhibition assay (SRB), HeLa; details: HeLa (cervix), 96 hours
Text: as §1, §2, §3, §4, §5

[14] = test system: MKN-45; experiment: Cell growth inhibition assay (SRB), MKN-45; details: MKN-45 (stomach), 96 hours
Text: as §1, §2, §3, §4, §5

[15] = test system: MDA-MB-231; experiment: Cell growth inhibition assay (SRB), MDA-MB-231; details: MDA-MB-231 (breast), 96 hours
Text: as §1, §2, §3, §4, §5

Structure (SMILES) | IC50 [1] [µM] | IC50 [2] [µM] | IC50 [4] [µM] | IC50 [5] [µM] | IC50 [8] [µM] | IC50 [10] [µM] | IC50 [11] [µM] | IC50 [12] [µM] | IC50 [13] [µM] | IC50 [14] [µM] | IC50 [15] [µM] | IC50 [3] [µM] | IC50 [6] [µM] | IC50 [7] [µM] | IC50 [9] [µM]
Fc1cccc(CCNc2ncnc3ccccc23)c1 [RX-1195] | 0.34 | 2.07 | > 3 | 1.53 | 1.95 | 2.1 | 2.6 | 1.18 | > 3 | > 3 | 0.46 | 2.16 | 0.44 | 0.41 | > 3
Brc1ccc2ncnc(NCCCCc3ccccc3)c2c1 [RX-1251] | > 3 | > 3 | > 3 | 0.55 | 0.42 | 1.92 | > 3 | 0.9 | > 3 | > 3 | 0.34 | 0.19 | 0.43 | 0.47 | 1.96
Fc1cc(Cl)ccc1Nc1ncnc2ccc(Br)cc12 [RX-1279] | > 3 | > 3 | > 3 | > 3 | 2.97 | 2.86 | > 3 | 0.75 | > 3 | > 3 | > 3 | > 3 | > 3 | > 3 | 2.15
Cc1cccc2ncnc(NCCc3ccc(F)cc3)c12 [RX-1541] | 0.22 | 1.26 | > 3 | 1.26 | 1.78 | 1.89 | 2.86 | 0.91 | > 3 | > 3 | 0.47 | 2.96 | 0.53 | 0.37 | > 3
Ic1ccc2ncnc(NC3CCCCC3)c2c1 [RX-1659] | > 3 | > 3 | > 3 | 0.36 | 0.51 | > 3 | > 3 | 1 | > 3 | > 3 | > 3 | 1.95 | > 3 | > 3 | 1.71
Fc1cccc(CCNc2ncnc3ccc(I)cc23)c1 [RX-1668] | 1.83 | > 3 | > 3 | 0.23 | 0.27 | > 3 | > 3 | 0.3 | > 3 | > 3 | > 3 | > 3 | 0.89 | 1.83 | 2.93
Ic1ccc2ncnc(NCCCCc3ccccc3)c2c1 [RX-1670] | > 3 | > 3 | > 3 | 0.43 | 0.62 | > 3 | > 3 | 1.51 | > 3 | > 3 | 1.06 | 0.88 | 1.35 | 1.53 | > 3
FC(F)(F)c1ccccc1CNc1ncnc2ccc(I)cc12 [RX-1682] | > 3 | > 3 | > 3 | 0.55 | 0.53 | > 3 | > 3 | 1.51 | > 3 | > 3 | > 3 | > 3 | > 3 | > 3 | > 3
Fc1cc(Cl)ccc1Nc1ncnc2ccc(I)cc12 [RX-1701] | > 3 | > 3 | > 3 | 1.36 | 2.19 | > 3 | > 3 | 1.16 | > 3 | > 3 | > 3 | > 3 | > 3 | > 3 | 2.85
Cn1cnc2cc3ncnc(NCCc4ccccc4F)c3cc21 [RX-1857] | > 3 | > 3 | > 3 | > 3 | > 3 | > 3 | > 3 | > 3 | > 3 | > 3 | > 3 | > 3 | > 3 | > 3 | 1.57
Cn1cnc2cc3ncnc(NCc4cccc(F)c4)c3cc21 [RX-1881] | > 3 | > 3 | > 3 | 0.68 | 0.91 | > 3 | > 3 | 1.29 | > 3 | > 3 | > 3 | > 3 | > 3 | > 3 | 2.34

More lines, main results first:

IC50 [1] [µM] | IC50 [2] [µM] | IC50 [4] [µM] | IC50 [5] [µM] | IC50 [8] [µM] | IC50 [10] [µM] | IC50 [11] [µM] | IC50 [12] [µM] | IC50 [13] [µM] | IC50 [14] [µM] | IC50 [15] [µM] | Structure (SMILES) | IC50 [3] [µM] | IC50 [6] [µM] | IC50 [7] [µM] | IC50 [9] [µM]
1.42 | 2.55 | 0.88 | 0.63 | 0.57 | 2 | 1.01 | 2.39 | 1.3 | 1.33 | 0.73 | Cc1cc(C)c(Nc2ncnc3ccc([N+](=O)[O-])cc23)c(C)c1 [RX-1122] | 1.1 | 1.35 | 1.09 | 1.11
> 3 | > 3 | > 3 | 0.58 | 0.56 | 2.4 | > 3 | 0.9 | > 3 | > 3 | 0.88 | Fc1cccc(CCNc2ncnc3ccc(Br)cc23)c1 [RX-1242] | 0.73 | 1.03 | 1.29 | 2.39
> 3 | > 3 | > 3 | 0.74 | 0.69 | > 3 | > 3 | 2.25 | > 3 | > 3 | > 3 | FC(F)(F)c1ccccc1CNc1ncnc2ccc(Br)cc12 [RX-1260] | > 3 | > 3 | > 3 | > 3
> 3 | > 3 | > 3 | 1.34 | 1.93 | > 3 | > 3 | 2.47 | > 3 | > 3 | 0.84 | c1ccc(CCCCNc2ncnc3cc4[nH]cnc4cc23)cc1 [RX-1842] | 1.15 | 1.05 | 1.98 | > 3
> 3 | 1.7 | > 3 | 1.17 | 0.9 | > 3 | > 3 | 0.85 | > 3 | > 3 | > 3 | Cn1cnc2cc3ncnc(NCCc4cccc(F)c4)c3cc21 [RX-1894] | > 3 | > 3 | > 3 | 2.33

Reference: patent US7388014B2, “Quinazoline derivatives and therapeutic use thereof” (Rexahn Pharmaceuticals, Inc., priority 2004, dated 2008)
